Experimental data taken from patent US11208396B2, “Oxime compounds as agonists of the muscarinic M1 and/or M4 receptor” (Heptares Therapeutics Limited, priority 2015, dated 2021).

Tests used:
Type in all cases: cell-based
[1] = target: T1, human muscarinic M3 receptor (Homo sapiens, UniProt P20309); experiment: Alphascreen Surefire phospho-ERK1/2 functional assay, M3; details: for EC50 / % Emax cf. ACh, M3 / pEC50 M3: CHO cells stably expressing human M3; for EC50 / pEC50 M3: agonist 5 min, 37° C.; for EC50: read-out: pEC50 M3 (converted); for Emax: CHO, read-out: % Emax cf. ACh, M3, CHO cells stably expressing human M3; for Emax / % Emax cf. ACh, M3: Emax compared with ACh
T1 construct: expressed in transfected cells
Experimental: (§1) ERK1/2 phosphorylation is a downstream consequence of both Gq/11 and Gi/o protein coupled receptor activation, making it highly suitable for the assessment of M1, M3 (Gq/11 coupled) and M2, M4 receptors (Gi/o coupled), rather than using different assay formats for different receptor subtypes. CHO cells stably expressing the human muscarinic M1, M2, M3 or M4 receptor were plated (25K/well) onto 96-well tissue culture plates in MEM-alpha+10% dialysed FBS. Once adhered, cells were serum-starved overnight. Agonist stimulation was performed by the addition of 5 μL agonist to the cells for 5 min (37° C.). Media was removed and 50 μL of lysis buffer added. After 15 min, a 4 μL sample was transferred to 384-well plate and 7 μL of detection mixture added. Plates were incubated for 2 h with gentle agitation in the dark and then read on a PHERAstar plate reader.
(§2) pEC50 and Emax figures were calculated from the resulting data for each receptor subtype.

[2] = target: T2, human muscarinic M2 receptor (Homo sapiens, UniProt P08172); experiment: Alphascreen Surefire phospho-ERK1/2 functional assay, M2; details: for % Emax cf. ACh, M2 / EC50 / pEC50 M2: CHO cells stably expressing human M2; for % Emax cf. ACh, M2 / Emax: Emax compared with ACh; for EC50 / pEC50 M2: agonist 5 min, 37° C.; for EC50: read-out: pEC50 M2 (converted); for Emax: CHO, read-out: % Emax cf. ACh, M2, CHO cells stably expressing human M2
T2 sequence (P08172 1-466): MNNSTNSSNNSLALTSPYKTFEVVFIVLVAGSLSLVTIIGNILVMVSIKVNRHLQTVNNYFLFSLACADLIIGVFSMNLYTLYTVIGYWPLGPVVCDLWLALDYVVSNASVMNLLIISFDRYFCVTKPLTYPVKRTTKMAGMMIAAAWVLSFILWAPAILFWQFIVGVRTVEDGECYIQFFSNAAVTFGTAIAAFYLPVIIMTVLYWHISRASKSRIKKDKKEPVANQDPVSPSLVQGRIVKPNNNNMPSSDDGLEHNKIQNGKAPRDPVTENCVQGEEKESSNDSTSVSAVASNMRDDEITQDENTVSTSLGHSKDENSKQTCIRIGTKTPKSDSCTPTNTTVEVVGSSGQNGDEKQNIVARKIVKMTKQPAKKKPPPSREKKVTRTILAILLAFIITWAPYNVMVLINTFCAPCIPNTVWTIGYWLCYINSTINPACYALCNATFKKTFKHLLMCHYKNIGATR
Experimental: as §1, §2

[3] = target: T3, human muscarinic M1 receptor (Homo sapiens, UniProt P11229); experiment: Alphascreen Surefire phospho-ERK1/2 functional assay, M1; details: for EC50 / % Emax cf. ACh, M1 / pEC50 M1: CHO cells stably expressing human M1; for EC50 / pEC50 M1: agonist 5 min, 37° C.; for EC50: read-out: pEC50 M1 (converted); for Emax: CHO, read-out: % Emax cf. ACh, M1, CHO cells stably expressing human M1; for Emax / % Emax cf. ACh, M1: Emax compared with ACh
T3 sequence (P11229 1-460): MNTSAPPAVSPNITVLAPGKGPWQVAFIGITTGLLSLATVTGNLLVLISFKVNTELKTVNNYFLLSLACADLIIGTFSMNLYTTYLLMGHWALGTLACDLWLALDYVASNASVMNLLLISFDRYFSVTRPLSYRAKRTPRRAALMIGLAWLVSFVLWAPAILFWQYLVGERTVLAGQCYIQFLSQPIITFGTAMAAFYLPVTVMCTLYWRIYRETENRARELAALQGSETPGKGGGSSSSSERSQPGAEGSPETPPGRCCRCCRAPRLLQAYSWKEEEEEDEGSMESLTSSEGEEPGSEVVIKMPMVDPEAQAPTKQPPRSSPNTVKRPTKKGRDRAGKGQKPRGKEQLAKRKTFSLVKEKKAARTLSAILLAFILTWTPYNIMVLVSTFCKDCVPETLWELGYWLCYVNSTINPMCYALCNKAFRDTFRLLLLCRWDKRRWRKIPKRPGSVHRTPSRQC
Experimental: as §1, §2

[4] = target: T4, human muscarinic M4 receptor (Homo sapiens, UniProt P08173); experiment: Alphascreen Surefire phospho-ERK1/2 functional assay, M4; details: for EC50: read-out: pEC50 M4 (converted); for Emax: CHO, read-out: % Emax cf. ACh, M4, CHO cells stably expressing human M4; for Emax / % Emax cf. ACh, M4: Emax compared with ACh
T4 construct: expressed in transfected cells
T4 sequence (P08173 1-479): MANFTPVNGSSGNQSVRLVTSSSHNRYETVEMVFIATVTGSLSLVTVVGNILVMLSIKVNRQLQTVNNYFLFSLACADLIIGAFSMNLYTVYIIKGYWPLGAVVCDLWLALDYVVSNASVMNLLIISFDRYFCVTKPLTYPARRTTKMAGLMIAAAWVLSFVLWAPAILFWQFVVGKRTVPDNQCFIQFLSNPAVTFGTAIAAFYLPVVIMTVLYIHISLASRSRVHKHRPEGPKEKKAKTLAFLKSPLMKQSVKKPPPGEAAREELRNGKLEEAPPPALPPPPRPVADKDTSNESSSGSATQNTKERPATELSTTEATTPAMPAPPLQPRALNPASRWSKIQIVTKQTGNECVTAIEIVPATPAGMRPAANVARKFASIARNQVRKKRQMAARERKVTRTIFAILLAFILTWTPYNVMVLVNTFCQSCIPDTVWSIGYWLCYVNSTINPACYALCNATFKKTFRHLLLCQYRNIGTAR
Experimental: as §1, §2

[5] = CHO cells stably expressing human M4, agonist 5 min, 37° C.
[6] = CHO cells stably expressing human M4

T1 sequence (P20309 whole entry): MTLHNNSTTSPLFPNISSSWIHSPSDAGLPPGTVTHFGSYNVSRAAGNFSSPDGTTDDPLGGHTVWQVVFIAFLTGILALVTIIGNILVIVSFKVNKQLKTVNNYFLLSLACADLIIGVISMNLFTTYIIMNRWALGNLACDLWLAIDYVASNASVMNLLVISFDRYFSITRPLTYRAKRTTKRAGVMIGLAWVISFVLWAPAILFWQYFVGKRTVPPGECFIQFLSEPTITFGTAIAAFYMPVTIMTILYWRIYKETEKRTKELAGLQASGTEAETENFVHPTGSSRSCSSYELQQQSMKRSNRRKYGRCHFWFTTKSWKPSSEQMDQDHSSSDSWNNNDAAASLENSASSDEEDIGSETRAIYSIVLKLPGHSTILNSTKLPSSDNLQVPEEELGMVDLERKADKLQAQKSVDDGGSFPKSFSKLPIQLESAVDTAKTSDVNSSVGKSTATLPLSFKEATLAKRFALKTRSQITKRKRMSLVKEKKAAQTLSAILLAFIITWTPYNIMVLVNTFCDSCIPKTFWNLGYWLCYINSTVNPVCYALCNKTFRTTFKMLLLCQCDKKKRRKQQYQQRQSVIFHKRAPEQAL

Structure (SMILES) | EC50 [1] | Emax [1] | % Emax cf. ACh, M2 [2] | EC50 [2] | EC50 [3] | Emax [3] | EC50 [4, 5] | Emax [4] | Emax [2] | % Emax cf. ACh, M3 [1] | pEC50 M3 [1] | pEC50 M2 [2] | % Emax cf. ACh, M1 [3] | % Emax cf. ACh, M4 [4, 6] | pEC50 M1 [3] | pEC50 M4 [4, 5]
CCOC(=O)N1CCC[C@H](N2CCC(C(CC)=NOC)CC2)CC1 (single isomer, unassigned) [(S)-1-2 Isomer 1] | > 20000 nM | 9% | 11% | > 20000 nM | > 20000 nM | 21% | 63.1 nM | 81% |  |  |  |  |  |  |  | 
CCCC(=NOC)C1CCN(C2CC3(CCN(C(=O)OCC)C3)C2)CC1 (mixture of isomers) [2-3 Mixture of two isomers] | > 20000 nM | 5% |  | > 20000 nM | > 20000 nM | 22% | 20 nM | 93% | 7% |  |  |  |  |  |  | 
CCON=C(C)C1CCN(C2CCCN(C(=O)OCC)CC2)CC1 (single isomer, unassigned) [1-7 Isomer 1 (racemic)] |  |  |  |  | 631 nM | 48% | 631 nM | 52% |  |  |  |  |  |  |  | 
CCCC(=NOC)C1CCN(C2CCCN(C(=O)OCC)CC2)CC1 (single isomer, unassigned) [1-3 Isomer 1 (racemic)] |  |  |  |  | 316 nM | 106% | 25.1 nM | 85% |  |  |  |  |  |  |  | 
CCOC(=O)N1CCCC(N2CCC(C(CC)=NOC)CC2)CC1 (single isomer, unassigned) [1-2 Isomer 2 (racemic)] |  |  | 7% |  | 398 nM |  | 25.1 nM |  |  | 1% | < 4.7 | < 4.7 | 83% | 94% |  | 
CCOC(=O)N1CCCC(N2CCC(C(C)=NOC)CC2)CC1 (single isomer, unassigned) [1-1 Isomer 2 (racemic)] | > 20000 nM | 1% |  | > 20000 nM | 1580 nM | 54% | 126 nM | 71% | 4% |  |  |  |  |  |  | 
CCOC(=O)N1CCCC(N2CCC(C(C)=NOC(C)C)CC2)CC1 (single isomer, unassigned) [1-9 Isomer 1 (racemic)] |  |  |  |  | 631 nM | 57% | > 20000 nM |  |  |  |  |  |  | 0% |  | 
CCOC(=O)N1CCCC(N2CCC(C(=NOC)C(C)C)CC2)CC1 (single isomer, unassigned) [1-4 Isomer 1 (racemic)] | > 20000 nM | 5% | 24% | > 20000 nM | 398 nM | 87% | 50.1 nM | 115% |  |  |  |  |  |  |  | 
CCON=C(C)C1CCN(C2CCCN(C(=O)OCC)CC2)CC1 (single isomer, unassigned) [1-7 Isomer 2 (racemic)] |  |  |  |  | 501 nM |  | 251 nM |  |  |  |  |  | 66% | 62% |  | 
CCOC(=O)N1CCCC(N2CCC(C(CC)=NOC)CC2)CC1 (single isomer, unassigned) [1-2 Isomer 1 (racemic)] | > 20000 nM |  | 2% | > 20000 nM | 501 nM |  | 79.4 nM | 99% |  | 37% |  |  | 58% |  |  | 
CCOC(=O)N1CCCC(N2CCC(C(CCC(C)C)=NOC)CC2)CC1 (single isomer, unassigned) [1-6 Isomer 2 (racemic)] | > 20000 nM | 16% |  | > 20000 nM | 39.8 nM | 96% | 126 nM | 65% | 10% |  |  |  |  |  |  | 
CCOC(=O)N1CCCC(N2CCC(C(=NOC)C(C)C)CC2)CC1 (single isomer, unassigned) [1-5 Isomer 2 (racemic)] |  |  | 22% |  |  |  |  |  |  | 4% | < 4.7 | < 4.7 | 105% | 104% | 6.5 | 7.5
CCCON=C(CC)C1CCN(C2CCCN(C(=O)OCC)CC2)CC1 (single isomer, unassigned) [1-11 Isomer 2 (racemic)] | > 20000 nM | 6% |  | > 20000 nM | 158 nM |  | 63.1 nM |  | 19% |  |  |  | 99% | 97% |  | 
CCOC(=O)N1CCC2(CC(N3CCC(C(C)=NOC)CC3)C2)C1 (single isomer, unassigned) [2-1 Mixture of isomers 2] | > 20000 nM | 9% |  | > 20000 nM | 200 nM | 89% | 63.1 nM | 68% | 71% |  |  |  |  |  |  | 
CCOC(=O)N1CCC[C@H](N2CCC(C(CC)=NOC)CC2)CC1 (single isomer, unassigned) [(S)-1-2 Isomer 2] |  |  | 5% |  | 501 nM |  | 50.1 nM |  |  | 7% | < 4.7 | < 4.7 | 36% | 81% |  | 
CCOC(=O)N1CCCC(N2CCC(C(=NOC)NCC(C)C)CC2)CC1 (racemic) [3-1 Mixture of isomers] |  |  |  |  | 251 nM | 136% | 398 nM | 56% |  |  |  |  |  |  |  | 
CCCON=C(C)C1CCN(C2CCCN(C(=O)OCC)CC2)CC1 (single isomer, unassigned) [1-8 Isomer 2 (racemic)] |  |  |  |  | 316 nM |  | 316 nM |  |  |  |  |  | 85% | 50% |  | 
CCCON=C(CC)C1CCN(C2CCCN(C(=O)OCC)CC2)CC1 (single isomer, unassigned) [1-11 Isomer 1 (racemic)] |  |  |  |  | 251 nM | 107% | 126 nM |  |  |  |  |  |  | 72% |  | 
CCCON=C(C)C1CCN(C2CCCN(C(=O)OCC)CC2)CC1 (single isomer, unassigned) [1-8 Isomer 1 (racemic)] |  |  |  |  | 794 nM | 65% | 794 nM | 46% |  |  |  |  |  |  |  | 
CCOC(=O)N1CCCC(N2CCC(C(C)=NOC(C)C)CC2)CC1 (single isomer, unassigned) [1-9 Isomer 2 (racemic)] |  |  |  |  |  |  | 398 nM |  |  |  |  |  | 46% | 81% | 6.2 | 
CCOC(=O)N1CCC[C@H](N2CCC(C(C)=NOC)CC2)CC1 (single isomer, unassigned) [(S)-1-1 Isomer 1] |  |  |  |  | 631 nM | 47% | 200 nM |  |  |  |  |  |  | 31% |  | 
